Experimental data as given in the supplement of paper PMC10307832.

Columns and labels:
Test in all cases: relative viability (nuclei count vs DMSO), 5 days (fraction); higher = more cells survive
[1] = compound: O=c1[nH]cc(F)c(=O)[nH]1 [5-Fluorouracil] + CC(=O)Nc1cccc(-n2c(=O)n(C3CC3)c(=O)c3c(Nc4ccc(I)cc4F)n(C)c(=O)c(C)c32)c1 [Trametinib] (partner 0.02 µM)
Summary of the method: (§1)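 Relative viability is defined as nuclei in treated wells over nuclei in vehicle wells. Duplicate plates were run and medians reported. Lung cancer cell lines in 1536-well plates were dosed by pin tool one day after seeding, with one drug or with a fixed anchor-drug dose plus five library-drug doses (not always all listed) in √10 steps, and nuclei were counted after 5 days.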

[2] = compound: O=c1[nH]cc(F)c(=O)[nH]1 [5-Fluorouracil] + CC(=O)c1c(C)c2cnc(Nc3ccc(N4CCNCC4)cn3)nc2n(C2CCCC2)c1=O [Palbociclib] (partner 0.5 µM)
Summary of the method: as §1

[3] = compound: CC1=C(CC(=O)O)c2cc(F)ccc2/C1=C\c1ccc([S+](C)[O-])cc1 [Sulindac] + CS(=O)(=O)CCNCc1ccc(-c2ccc3ncnc(Nc4ccc(OCc5cccc(F)c5)c(Cl)c4)c3c2)o1 [Lapatinib] (partner 2 µM)
Summary of the method: as §1

[4] = compound: O=c1[nH]cc(F)c(=O)[nH]1 [5-Fluorouracil] + C[C@@H](Oc1cc(-c2cnn(C3CCNCC3)c2)cnc1N)c1c(Cl)ccc(F)c1Cl [Crizotinib] (partner 1 µM)
Summary of the method: as §1

Cell Line | relative viability ([1]; first compound 0.02 µM) | relative viability ([1]; first compound 0.2 µM) | relative viability ([1]; first compound 0.6325 µM) | relative viability ([1]; first compound 2 µM) | relative viability ([2]; first compound 0.02 µM) | relative viability ([2]; first compound 0.2 µM) | relative viability ([2]; first compound 0.6325 µM) | relative viability ([2]; first compound 2 µM) | relative viability ([3]; first compound 0.08 µM) | relative viability ([3]; first compound 0.253 µM) | relative viability ([3]; first compound 0.8 µM) | relative viability ([3]; first compound 2.53 µM) | relative viability ([3]; first compound 8 µM) | relative viability ([4]; first compound 0.02 µM) | relative viability ([4]; first compound 0.2 µM) | relative viability ([4]; first compound 0.6325 µM) | relative viability ([4]; first compound 2 µM)
NCI-H2023 | 0.472 | 0.21 | 0.133 | 0.0877 | 0.397 | 0.155 | 0.0836 | 0.102 | 0.708 | 0.733 | 0.741 | 0.774 | 1.09 | 0.621 | 0.189 | 0.105 | 0.106
ABC-1 |  |  |  |  | 0.749 | 0.794 | 0.883 | 0.49 |  | 1.23 | 1.13 | 1.28 | 1.24 | 1.17 | 1.05 | 0.967 | 0.871
IA-LM |  |  |  |  |  |  |  |  | 0.724 | 0.8 | 0.68 | 0.782 | 0.798 | 1.03 | 0.401 | 0.254 | 0.289
NCI-H441 | 0.567 | 0.499 | 0.402 | 0.38 | 0.238 | 0.264 | 0.178 | 0.249 |  |  |  |  |  | 0.511 | 0.767 | 0.388 | 0.333
NCI-H1915 | 0.28 | 0.325 | 0.253 | 0.283 | 0.485 | 0.522 | 0.498 | 0.383 | 1.24 | 1.09 | 0.842 | 0.913 | 1.1 | 0.819 | 0.949 | 0.824 | 0.619
LXF-289 | 0.674 | 0.591 | 0.346 | 0.33 | 0.596 | 0.578 | 0.312 | 0.283 | 0.956 | 0.972 | 0.87 | 0.919 | 0.941 | 0.793 | 0.574 | 0.338 | 0.277
HCC-827 | 0.407 | 0.544 | 0.425 | 0.276 | 0.46 | 0.455 | 0.231 | 0.255 | 0.247 | 0.183 | 0.192 | 0.181 | 0.184 | 0.859 | 0.891 | 0.604 | 0.416
EMC-BAC-2 | 0.934 | 1.05 | 0.914 | 0.879 | 0.52 | 0.532 | 0.501 | 0.518 | 0.945 | 0.973 | 0.682 | 0.88 | 0.93 | 0.871 | 0.788 | 0.764 | 0.767
NCI-H522 | 0.76 | 0.681 | 0.724 | 0.638 | 1 | 1.05 | 0.96 | 0.992 |  |  |  |  |  |  |  |  | 
NCI-H1299 |  |  |  |  |  |  |  |  | 1.06 | 0.927 | 0.96 | 0.942 | 1.06 | 0.952 | 0.976 | 0.943 | 0.682
